Molecules are shown by their SMILES. Like-named read-outs stand apart in the source and are kept apart here. *1 amine or outer side, *2 acyl side, *3 side chain or, on linkers, in order; H or OH if unused. Where a SMILES comes first, the peptide text is derived from it. Bridges are numbered along the chain shown (N, C = ends). [ ]: non-standard residue; d: D form. The star is where a group is joined. pTerphenylCO(4''-OnC5H11) = CCCCCOc1ccc(-c2ccc(-c3ccc(C(=O)*)cc3)cc2)cc1; Orn(4R-OH,5R-OH) = O=C([C@H](C[C@@H](O)[C@@H](O)N[*:3])N[*:1])[*:2]; hTyr(3S-OH,4S-OH) = N[C@H](C(=O)O)[C@H](O)[C@@H](O)c1ccc(O)cc1; Pro(3S-OH,4S-Me) = C[C@H]1CN[C@H](C(=O)O)[C@H]1O; Hyp = O=C(O)[C@@H]1C[C@@H](O)CN1

The record followed here is article PMC11855827, “High-Throughput Screening of Five Compound Libraries for Anthelmintic Activity and Toxicity Leads to the Discovery of Two Flavonoid Compounds” (International Journal of Molecular Sciences, 2025).

The test system of the experiment is C. elegans. As to the kind of experiment: microbe, parasite or virus in culture. The following applies: Caenorhabditis elegans.
Where [1] appears, read: 0 h, read-out: Percentage of motility inhibition 0 h, Table S2, C. elegans SS assay, 110 μM, 0 h, averages of 4 data points.
Where [2] appears, read: 24 h, read-out: Percentage of motility inhibition 24 h, Table S2, C. elegans SS assay, 110 μM, 24 h, averages of 4 data points.
The mark [3] stands for this setting: 0 h, read-out: Percentage of motility inhibition 0 h.
Setting [4] is: 24 h, read-out: Percentage of motility inhibition 24 h.

Consider `N#C[C@H](O[C@@H]1O[C@H](CO[C@@H]2O[C@H](CO)[C@@H](O)[C@H](O)[C@H]2O)[C@@H](O)[C@H](O)[C@H]1O)c1ccccc1` [Amygdalin], for which the inhibition (commonly how much of the control response was suppressed) at 110 µM by setting is: under setting [1], 13%; under setting [2], 0%.

As for `c1cncc([C@@H]2CCCCN2)c1` [Anabasine], the inhibition at 110 µM is 0% under setting [1] and 0% under setting [2].

As to `O=c1cccc2n1C[C@H]1C[C@@H]2CN2CCCC[C@H]12` [Anagyrine], the inhibition at 110 µM reads like this: under setting [1], 14%; under setting [2], 6%.

`C=C1CC[C@@H]2[C@](C)(CO)CCC[C@@]2(C)[C@@H]1CCC1=CCOC1=O` [Andrograpanin]: the inhibition at 110 µM under setting [1] worked out at 3% and the inhibition at 110 µM under setting [2] was 20%.

For `CCCCCOc1ccc(-c2ccc(-c3ccc(C(=O)N[C@H]4C[C@@H](O)[C@@H](O)NC(=O)[C@@H]5[C@@H](O)[C@@H](C)CN5C(=O)[C@H]([C@@H](C)O)NC(=O)[C@H]([C@H](O)[C@@H](O)c5ccc(O)cc5)NC(=O)[C@@H]5C[C@@H](O)CN5C(=O)[C@H]([C@@H](C)O)NC4=O)cc3)cc2)cc1` [Anidulafungin] ({pTerphenylCO(4''-OnC5H11)}-[Orn(4R-OH,5R-OH)]T[Hyp][hTyr(3S-OH,4S-OH)]T[Pro(3S-OH,4S-Me)]; lactam 1-C), the inhibition at 110 µM turned out to be 54% under setting [1] and 61% under setting [2].

Regarding `C[C@@H]1C[C@@H](O)[C@@]2(O)[C@@]13C[C@@H](OC(=O)[C@H]3O)[C@](C)(O)[C@@]21COC1=O` [Anisatin], the inhibition at 110 µM under setting [1] was determined as 0% and the inhibition at 110 µM under setting [2] was 20%.

`O=c1cc(-c2ccc(O)cc2)oc2cc(O)cc(O)c12` [Apigenin]: the inhibition at 110 µM under setting [1] is 12% and the inhibition at 110 µM under setting [2] worked out at 3%.

`O=c1cc(-c2ccc(O)cc2)oc2cc(O[C@@H]3O[C@H](CO)[C@@H](O)[C@H](O)[C@H]3O[C@@H]3OC[C@](O)(CO)[C@H]3O)cc(O)c12` [Apiin]: the inhibition at 110 µM is, setting by setting: under setting [1], 24%; under setting [2], 0%.

As to `Cn1c(Cc2ccccc2)nc(=O)c2ccccc21` [Arborine], the inhibition at 110 µM came to 0% under setting [1] and 4% under setting [2].

In the case of `OC[C@H]1O[C@@H](Oc2ccc(O)cc2)[C@H](O)[C@@H](O)[C@@H]1O` [Arbutin], the inhibition at 110 µM under setting [1] was found to be 0% and the inhibition at 110 µM under setting [2] was found to be 1%.

Consider `C[C@@H]1O[C@@H](O[C@H]2[C@H](O[C@H]3CO[C@@H](O[C@H]4CC[C@]5(C)[C@H]6CC[C@]78OC[C@@]9(CC[C@](C)(C=O)C[C@H]97)[C@H](O)C[C@@]8(C)[C@]6(C)CC[C@H]5C4(C)C)[C@H](O[C@@H]4O[C@H](CO)[C@@H](O)[C@H](O)[C@H]4O)[C@H]3O)O[C@H](CO)[C@@H](O)[C@@H]2O)[C@H](O)[C@H](O)[C@H]1O` [Ardisiacrispin B], for which the inhibition at 110 µM turned out to be 16% under setting [1] and 0% under setting [2].

With `CC1(C)CC[C@]2(C(=O)O)CC[C@]3(C)C(=CC[C@@H]4[C@@]5(C)C[C@@H](O)[C@H](O)[C@@](C)(CO)[C@@H]5CC[C@]43C)[C@@H]2[C@@H]1O` [Arjungenin], the inhibition at 110 µM is, setting by setting: under setting [1], 0%; under setting [2], 36%.

Consider `C=C1C(=O)O[C@@]23[C@H]1CC[C@@H](C)[C@@H]2CC[C@@]1(C)O[C@@H]31` [Arteannuin B], for which the inhibition at 110 µM runs as follows: under setting [1], 13%; under setting [2], 11%.

With `C=C1C(=O)O[C@@H]2O[C@@]3(C)CC[C@H]4[C@H](C)CC[C@@H]1[C@@]24OO3` [Artemisitene], the inhibition at 110 µM by setting is: under setting [1], 0%; under setting [2], 9%.

For `CC[C@@H]1/C=C(\C)C[C@H](C)C[C@H](OC)[C@H]2O[C@@](O)(C(=O)C(=O)N3CCCC[C@H]3C(=O)O[C@H](/C(C)=C/[C@@H]3CC[C@@H](O)[C@H](OC)C3)[C@H](C)[C@@H](O)CC1=O)[C@H](C)C[C@@H]2OC` [Ascomycin], the inhibition at 110 µM is, setting by setting: under setting [1], 6%; under setting [2], 0%.

On to `C[C@H]1[C@H](C)CC[C@]2(C(=O)O)CC[C@]3(C)C(=CC[C@@H]4[C@@]5(C)C[C@@H](O)[C@H](O)[C@@](C)(CO)[C@@H]5CC[C@]43C)[C@H]12` [Asiatic acid], for which the inhibition at 110 µM under setting [1] was determined as 41% and the inhibition at 110 µM under setting [2] turned out to be 55%.

As to `C[C@@H]1O[C@@H](O[C@H]2[C@H](O)[C@@H](O)[C@H](OC[C@H]3O[C@@H](OC(=O)[C@]45CCC(C)(C)C[C@H]4C4=CC[C@@H]6[C@@]7(C)C[C@@H](O)[C@H](O)[C@@](C)(CO)[C@@H]7[C@H](O)C[C@@]6(C)[C@]4(C)CC5)[C@H](O)[C@@H](O)[C@@H]3O)O[C@@H]2CO)[C@H](O)[C@H](O)[C@H]1O` [Asiaticoside B], the inhibition at 110 µM is, setting by setting: under setting [1], 0%; under setting [2], 5%.

As to `CC(=O)OCC1=C[C@@H]2OC(=O)C3=CO[C@@H](O[C@@H]4O[C@H](CO)[C@@H](O)[C@H](O)[C@H]4O)[C@H]1[C@@H]32` [Asperuloside], the inhibition at 110 µM is, setting by setting: under setting [1], 0%; under setting [2], 5%.

On to `CC(=O)OCC1=C[C@H](O)[C@@H]2C(C(=O)O)=CO[C@@H](O[C@@H]3O[C@H](CO)[C@@H](O)[C@H](O)[C@H]3O)[C@H]12` [Asperulosidic Acid], for which the inhibition at 110 µM is 2% under setting [1] and 0% under setting [2].

Consider `C[C@@H]1O[C@@H](O[C@H]2C(=O)c3c(O)cc(O)cc3O[C@@H]2c2ccc(O)c(O)c2)[C@H](O)[C@H](O)[C@H]1O` [Astilbin], for which the inhibition at 110 µM under setting [3] is 31% and the inhibition at 110 µM under setting [4] was 0%.

As to `O=c1c(O[C@@H]2O[C@H](CO)[C@@H](O)[C@H](O)[C@H]2O)c(-c2ccc(O)cc2)oc2cc(O)cc(O)c12` [Astragalin], the inhibition at 110 µM under setting [1] amounted to 1% and the inhibition at 110 µM under setting [2] came out at 1%.

Consider `O=C1C(O)=C([C@H]2CC[C@H](c3ccc(Cl)cc3)CC2)C(=O)c2ccccc21` [Atovaquone], for which the inhibition at 110 µM reads like this: under setting [1], 18%; under setting [2], 2%.

`C=C1CCC[C@]2(C)C[C@]3(O)OC(=O)C(C)=C3C[C@@H]12` [Atractylenolide III]: the inhibition at 110 µM is 3% under setting [1] and 6% under setting [2].

Consider `C=C1CCC[C@]2(C)C[C@@H]3OC(=O)C(C)=C3C[C@@H]12` [Atractylenolide II], for which the inhibition at 110 µM under setting [1] amounted to 10% and the inhibition at 110 µM under setting [2] is 2%.

In the case of `OCC1=C[C@@H](O)[C@@H]2C=CO[C@@H](O[C@@H]3O[C@H](CO)[C@@H](O)[C@H](O)[C@H]3O)[C@H]12` [Aucubin], the inhibition at 110 µM amounted to 10% under setting [1] and 19% under setting [2].

With `O=c1c(O[C@@H]2O[C@@H](CO)[C@H](O)[C@H]2O)c(-c2ccc(O)c(O)c2)oc2cc(O)cc(O)c12` [Avicularin], the inhibition at 110 µM is, setting by setting: under setting [1], 33%; under setting [2], 21%.

With `COc1cc(O)c2c(=O)c(OC)c(-c3ccc(OC)c(O)c3)oc2c1` [Ayanin], the inhibition at 110 µM runs as follows: under setting [3], 0%; under setting [4], 22%.

In the case of `C/C=C(\C)C(=O)O[C@H]1C[C@@H](OC(C)=O)[C@@]2(C(=O)OC)CO[C@H]3[C@@H](O)[C@@](C)([C@]45O[C@@]4(C)[C@H]4C[C@@H]5O[C@@H]5OC=C[C@@]54O)[C@H]4[C@]1(CO[C@]4(O)C(=O)OC)[C@@H]32` [Azadirachtin], the inhibition at 110 µM under setting [1] was 24% and the inhibition at 110 µM under setting [2] was 4%.

As for `O=C(O)CCCCCCCC(=O)O` [Azelaic acid], the inhibition at 110 µM reads like this: under setting [1], 0%; under setting [2], 0%.

As to `CC[C@H]1OC(=O)[C@H](C)[C@@H](O[C@H]2C[C@@](C)(OC)[C@@H](O)[C@H](C)O2)[C@H](C)[C@@H](O[C@@H]2O[C@H](C)C[C@H](N(C)C)[C@H]2O)[C@](C)(O)C[C@@H](C)CN(C)[C@H](C)[C@@H](O)[C@]1(C)O` [Azithromycin], the inhibition at 110 µM is, setting by setting: under setting [1], 23%; under setting [2], 37%.

For the molecule `Cn1c(N2CCCCS2(=O)=O)nc(C(=O)NCc2ccc(F)cc2)c(O)c1=O` [BMS‐707035], the inhibition at 110 µM reads like this: under setting [1], 0%; under setting [2], 1%.

`C[C@H]1COC2(CCN(c3nc(=O)c4cc(C(F)(F)F)cc([N+](=O)[O-])c4s3)CC2)O1` [BTZ043]: the inhibition at 110 µM under setting [1] is 0% and the inhibition at 110 µM under setting [2] was found to be 5%.

For the molecule `CC(=O)O[C@H]1C(=O)[C@@]2(C)[C@H]([C@H](OC(=O)c3ccccc3)[C@]3(O)C[C@H](O)C(C)=C1C3(C)C)[C@]1(OC(C)=O)CO[C@@H]1C[C@@H]2O` [Baccatin III], the inhibition at 110 µM reads like this: under setting [1], 0%; under setting [2], 0%.

Take `CC(C)=C[C@H]1C[C@](C)(O)[C@@H]2[C@H]3CC[C@@H]4[C@@]5(C)CC[C@H](O[C@@H]6O[C@H](CO)[C@@H](O)[C@H](O[C@@H]7O[C@H](CO)[C@@H](O)[C@H](O)[C@H]7O)[C@H]6O[C@@H]6O[C@@H](CO)[C@H](O)[C@H]6O)C(C)(C)[C@@H]5CC[C@@]4(C)[C@@]34CO[C@@]2(C4)O1` [Bacoside A3]: the inhibition at 110 µM was found to be 3% under setting [1] and 0% under setting [2].

`CNC1CCCN(c2c(F)cc3c(=O)c(C(=O)O)cn(C4CC4)c3c2OC)C1` (stereo not drawn) [Balofloxacin]: the inhibition at 110 µM came to 0% under setting [1] and 20% under setting [2].

For `COC(=O)C1=CO[C@@H](O[C@@H]2O[C@H](CO)[C@@H](O)[C@H](O)[C@H]2O)[C@H]2[C@@H]1[C@H](O)C[C@]2(C)OC(C)=O` [Barlerin], the inhibition at 110 µM under setting [1] came to 12% and the inhibition at 110 µM under setting [2] was 26%.

Take `CC(C)=CCc1cc2c(cc1O)O[C@H](c1ccc(O)cc1)CC2=O` [Bavachin]: the inhibition at 110 µM amounted to 27% under setting [1] and 24% under setting [2].

With `NC[C@H]1O[C@H](O[C@H]2[C@H](O)[C@@H](O[C@H]3O[C@H](CO)[C@@H](O)[C@H](N)[C@H]3O)[C@H](N)C[C@@H]2N)[C@H](N)[C@@H](O)[C@@H]1O` [Bekanamycin], the inhibition at 110 µM is 23% under setting [1] and 10% under setting [2].

Turning to `O=C(O)c1ccccc1` [Benzoic acid], the inhibition at 110 µM reads like this: under setting [3], 3%; under setting [4], 6%.
